The values that follow come from patent US11345725B2, “Bis-thioether stapled peptides as inhibitors of PRC2 function” (Research Foundation of the City University of New York, priority 2019, dated 2022).

Where two headings read alike, the source gives them in different places. Starred links: 1 amine or outer side, 2 acyl side, 3 side chain; linkers in the order of their positions; H or OH if unused. Positions of bridges follow the written chain, without caps; N, C: chain ends. Residues, ends and D or L forms follow the SMILES beside them. X6 = C(=C\C[*:2])/C[*:1]; X4 = C(CCC[*:2])CC[*:1]; X1 = C(C[*:1])C[*:2]

A short description of one series: circular dichroism. The conditions noted are these: deionized water; pH unbuffered; 20 °C; 25 uM. Background: CD spectra are sensitive to the conformation of chiral molecules.
The subject of the next series is Caki-1 cells. It is filed as cell-based, human. How it is done:
All of the cells were grown adherently.
Antiproliferative assays. […] For the following 72h, every 24 h the cell culture media was changed and fresh media containing the compounds was added, 1% DMSO was used as control. After 72h of treatment, both floating and attached cells were collected and analyzed.

Another series can be described thus: Plasma stability test. The series is classed as in vitro ADME. Conditions: human plasma, 37° C. How it is done: 1 mM stock solution of the corresponded peptide was prepared in PBS buffer (pH 7.4). Next, 50 μL from […] this solution were added to 1 mL of human plasma (Sigma-Aldrich, P9523). The mixture was incubated at 37° C. with mechanical shaking at 300 rpm. Aliquots were withdrawn in portions of 150 μL at different time points for analysis and mixed with 60 μL ACN/EtOH (1:1 v/v) for plasma protein precipitation. After centrifugation at 12000 rpm for 5 min, the supernatant was collected and analyzed by HPLC and HPLC-MS.

Another series is described as follows: FIG. 2D. The text has this: Table printed on a drawing sheet, FIG. 2D
(§1) The patent's description of the figure: FIG. 2A depicts the results of biochemical assays showing structure of the synthesized stapled peptides, and their correspondent helicity and IC50 values for inhibition of H3K27 trimethylation in vitro, as determined by a histone methyltransferase colorimetric assay optimized using endogenous PRC2 extracted from a human clear cell renal carcinoma cell line (Caki-1);
(§2) FIG. 2B depicts a CD spectra of stapled peptides and their linear counterparts measured in water at 20° C.;
FIG. 2C illustrates a plot of H3K27 trimethylation inhibition using the enzymatic in vitro assay described in FIG. 2A, with varying concentrations of 2 (GN-ZB2), positive control GSK126, and using an equimolar combination of both compounds to test their synergistic effects. A summary of the IC50 values for inhibition of H3K27me3 determined from the experiments is also presented. […]
(§3) FIG. 2D show both Chymotrypsin-based proteolytic degradation as well as the plasma assay show remarkable stability of the disclosed i, i+4 and i, i+7 12 bisthioether stapled peptides. The rate of peptide proteolysis was monitored by HPLC and HPLC-MS analysis.
First reader's note: The Assay column joins the peptide number (label) with the matrix (chymotrypsin or plasma, condition); units stand in the cells.

The nature of a further series: FIG. 5A. How it is done:
(§4) Table printed on a drawing sheet, FIG. 5A
(§5) FIG. 5C is a CD spectra of stapled peptides and their linear counterparts measured in water at 20° C.;
(§6) FIG. 5E is a plot of H3K27me3 inhibition obtained in an enzymatic assay using endogenous PRC2 extracted from Caki-1 cells and recombinant PRC2 complex (for compound 11);
First reader's note: Half-life units (min or h) stand in the cells; the compound structures are in the upper table of FIG. 5A.

The subject of series [1] is endogenous PRC2 extracted from a human clear cell renal carcinoma cell line (Caki-1). The experiment in a line: H3K27Me3 Inhibition (% at 1 mM). As for the experimental part:
as §4
Head of the field: H3K27Me3 Inhibition (% at 1 mM)
as §5, §6
First copying reader's note: Half-life units (min or h) stand in the cells; the compound structures are in the upper table of FIG. 5A.
Where the first naming reader finds the target: passage: using as catalytic complex endogenous PRC2 extracted from a human clear cell renal carcinoma cell line (Caki-1)

Series [2] shares this test system. The experiment in a line: IC50 (uM).
Excerpt: Table printed on a drawing sheet, FIG. 2A
Head of the field: IC50 (uM)
as §1, §2
FIG. 2C illustrates a plot of H3K27 trimethylation inhibition using the enzymatic in vitro assay described in FIG. 2A, with varying concentrations of 2 (GN-ZB2), positive control GSK126, and using an equimolar combination of both compounds to test their synergistic effects. A summary of the IC50 values for inhibition of H3K27me3 determined from the experiments is also presented. Calculation of the combination index using the equation described by Chou et al. indicated a marked synergistic effect (CI=0.53) of 2 (GN-ZB2) and GSK126;
as §3
First copying reader's note: IC50 cells hold the value and its ± error together.
Where the first naming reader finds the target: description_of_the_figure: histone methyltransferase colorimetric assay optimized using endogenous PRC2 extracted from a human clear cell renal carcinoma cell line (Caki-1)

In series [3] the target is T1, α-chymotrypsin from bovine pancreas type II (Bos taurus, UniProt P00766).
T1 construct: freshly prepared α-chymotrypsin from bovine pancreas type II, ≥40 U/mg; purchased; host or cells: bovine pancreas
The experiment in a line: Chymotrypsin stability test. The series is classed as in vitro ADME. How it is done:
Assays were performed using freshly prepared α-chymotrypsin from bovine pancreas type II, ≥40 U/mg. The enzyme was initially reconstituted in HCl […] (1 μg/μL), and kept in ice until used. Peptides stock solutions were prepared in assay buffer (50 mM Tris.HCl pH=8.0, 560 μM calcium chloride, 0.1% Tween-20) containing <3% of DMSO. The reactions were performed at a 200 μL scale, in assay buffer, at final concentrations of 50 μM for peptide and […] for α-chymotrypsin (10 μL from the reconstitution solution). The mixture was incubated at 37° C. and aliquots were withdrawn in portions of 25 μL at different time points for analysis. The removed aliquots were mixed with 25 μL of water 1% TFA, and then treated with a column for detergent removal following the manufacturer's protocol (Pierce, Catalog #:87776). The rate of peptide proteolysis was monitored by HPLC and HPLC-MS analysis. Control experiments were carried out under the same conditions but using BSA instead of α-chymotrypsin.

For the molecule `CC[C@H](C)[C@@H]1NC(=O)[C@@H](NC(=O)[C@H](Cc2ccc(O)cc2)NC(=O)[C@H](CCC(=O)O)NC(=O)[C@H](CCC(=O)O)NC(=O)[C@H](CC(N)=O)NC(=O)[C@@H](NC(=O)[C@@H](NC(C)=O)C(C)C)[C@@H](C)CC)CSCCCCCCSC[C@@H](C(=O)N[C@@H](CC(N)=O)C(=O)N[C@H](C(=O)N2CCC[C@H]2C(=O)N[C@@H](Cc2ccccc2)C(=O)N[C@@H](CC(C)C)C(N)=O)[C@@H](C)O)NC(=O)[C@H](CCCCN)NC(=O)[C@H](Cc2c[nH]c3ccccc23)NC1=O` (Ac-VINEEYCIWKCNTPFL-NH2; linker 7-11 via X4), in “circular dichroism”, the helicity came out at 19.4%. The molecule `CC[C@H](C)[C@@H]1NC(=O)[C@@H](NC(=O)[C@H](Cc2ccc(O)cc2)NC(=O)[C@H](CCC(=O)O)NC(=O)[C@H](CCC(=O)O)NC(=O)[C@H](CC(N)=O)NC(=O)[C@@H](NC(=O)[C@@H](NC(C)=O)C(C)C)[C@@H](C)CC)CSC/C=C/CSC[C@@H](C(=O)N[C@@H](CC(N)=O)C(=O)N[C@H](C(=O)N2CCC[C@H]2C(=O)N[C@@H](Cc2ccccc2)C(=O)N[C@@H](CC(C)C)C(N)=O)[C@@H](C)O)NC(=O)[C@H](CCCCN)NC(=O)[C@H](Cc2c[nH]c3ccccc23)NC1=O` (Ac-VINEEYCIWKCNTPFL-NH2; linker 7-11 via X6) had a helicity in “circular dichroism” of 24.2%.

For `CC[C@H](C)[C@@H]1NC(=O)[C@@H](NC(=O)[C@H](CC(=O)O)NC(=O)[C@@H](NC(=O)[C@@H](NC(C)=O)[C@@H](C)O)C(C)C)CSCCCSC[C@@H](C(=O)N[C@@H](CC(C)C)C(=O)N[C@@H](CO)C(=O)N[C@H](C(=O)N[C@@H](CC(C)C)C(=O)N[C@@H](C)C(=O)N[C@@H](CCC(=O)O)C(=O)N[C@@H](CCC(=O)O)C(=O)N[C@H](C(=O)N2CCC[C@H]2C(=O)N[C@@H](CCC(N)=O)C(=O)N[C@@H](CC(N)=O)C(N)=O)C(C)C)C(C)C)NC(=O)[C@H](CO)NC(=O)[C@H](C)NC1=O` [2 (GN-ZB2), TVD[CIASC](CH2)3LSVLAEEVPQN] (Ac-TVDCIASCLSVLAEEVPQN-NH2; linker 4-8 via X1; C-terminus assumed), in the series on Caki-1 cells (72 h), the IC50 was found to be 0.25 ± 0.03 µM. The “stability in plasma” value in “Plasma stability test” is recorded as “high resistance to proteolysis”. In the case of `CC[C@H](C)[C@@H]1NC(=O)[C@@H](NC(=O)[C@H](CC(=O)O)NC(=O)[C@@H](NC(=O)[C@@H](NC(C)=O)[C@@H](C)O)C(C)C)CSCCCSC[C@@H](C(=O)N[C@@H](CC(C)C)C(=O)N[C@@H](CO)C(=O)N[C@H](C(=O)N[C@@H](CC(C)C)C(=O)N[C@@H](C)C(=O)N[C@@H](CCC(=O)O)C(=O)N[C@@H](CCC(=O)O)C(=O)N[C@H](C(=O)N2CCC[C@H]2C(=O)N[C@@H](CCC(N)=O)C(=O)N[C@@H](CC(N)=O)C(N)=O)C(C)C)C(C)C)NC(=O)[C@H](CO)NC(=O)[C@H](C)NC1=O` [2 Chymotrypsin] (Ac-TVDCIASCLSVLAEEVPQN-NH2; linker 4-8 via X1), in “FIG. 2D”, the “Half Life” value amounted to 40.9 h. As to `CC[C@H](C)[C@@H]1NC(=O)[C@@H](NC(=O)[C@H](CC(=O)O)NC(=O)[C@@H](NC(=O)[C@@H](NC(C)=O)[C@@H](C)O)C(C)C)CSCCCSC[C@@H](C(=O)N[C@@H](CC(C)C)C(=O)N[C@@H](CO)C(=O)N[C@H](C(=O)N[C@@H](CC(C)C)C(=O)N[C@@H](C)C(=O)N[C@@H](CCC(=O)O)C(=O)N[C@@H](CCC(=O)O)C(=O)N[C@H](C(=O)N2CCC[C@H]2C(=O)N[C@@H](CCC(N)=O)C(=O)N[C@@H](CC(N)=O)C(N)=O)C(C)C)C(C)C)NC(=O)[C@H](CO)NC(=O)[C@H](C)NC1=O` [2 Plasma] (Ac-TVDCIASCLSVLAEEVPQN-NH2; linker 4-8 via X1), the “Half Life” value in the series “FIG. 2D” came to 20.6 h.

As for `CC[C@H](C)[C@H](NC(=O)[C@H](CC(C)C)NC(=O)[C@H](Cc1ccccc1)NC(=O)[C@H](CC(=O)O)NC(=O)[C@H](Cc1c[nH]cn1)NC(=O)[C@H](CCSC)NC(=O)[C@H](CO)NC(=O)[C@@H](NC(=O)[C@@H]1CSCCCSC[C@H](NC(=O)[C@H](CC(N)=O)NC(=O)[C@H](CCCNC(=N)N)NC(=O)[C@H](CS)NC(=O)[C@H](CC(C)C)NC(C)=O)C(=O)N[C@@H](CCSC)C(=O)N[C@@H](CC(C)C)C(=O)N[C@@H](Cc2c[nH]cn2)C(=O)N1)C(C)C)C(N)=O` [11 (GN-ZW11), LCRN[CMLHC](CH2)3VSMHDFLI] (Ac-LCRNCMLHCVSMHDFLI-NH2; linker 5-9 via X1), the helicity in the series “circular dichroism” stood at 95.1%. In addition, in the series “FIG. 5A”, the “Proteolytic Stability (Chymotripsin, t1/2)” value amounted to 14.4 h and the “Proteolytic Stability (Plasma, t1/2)” value was found to be 7.3 h. Further, the “H3K27Me3 Inhibition (% at 1 mM)” value in series [1] turned out to be 98.3 % at 1 mM. As to `CC[C@H](C)n1cc(C)c2c(C(=O)NCc3c(C)cc(C)[nH]c3=O)cc(-c3ccc(N4CCNCC4)nc3)cc21` [GSK126], in the series with Caki-1 cells (Caki-1 cells, 72h daily treatment, colorimetric method, read-out: IC50 cell proliferation), the IC50 was 0.15 ± 0.06 µM. The “effect on cell proliferation” value in the series on Caki-1 cells (Caki-1 cells, 72h of daily treatment) is on record as “significantly inhibits cell proliferation”. For Ac-EWLREKTITQIEEF-NH2, in “circular dichroism”, the helicity came to 20.9%. In the series “circular dichroism”, Ac-LCRNFMLHLVSMHDFLI-NH2 came in with a helicity of 59.9%. In the case of “Ac-TVDKIASA[CSVLAEEC]PQN-CONH2 CH2(CH2)4CH2 (TVDKIASACSVLAEECPQN; N-acetyl, C-amide, hexylene bisthioether staple; Synthetic bisthioether stapled peptide; compound 4; THIOETH (9)..(16) (CH2)6 linker between residues 9 and 16) [4 | SEQ ID NO: 6]”, the IC50 in series [2] was determined as 10.1 ± 1.1 µM. As for “Ac-TVDKIASA[CSVLAEEC]PQN-CONH2 CH2(CH2)5CH2 (TVDKIASACSVLAEECPQN; N-acetyl, C-amide, heptylene bisthioether staple; Synthetic bisthioether stapled peptide; Compound 5; THIOETH (9)..(16) (CH2)7 linker between residues 9 and 16) [5 | SEQ ID NO: 7]”, the IC50 in series [2] stood at 27.1 ± 1.2 µM. On to “Ac-TVDKIASA[CSVLAEEC]PQN-CONH2 CH2(CH2)6CH2 (TVDKIASACSVLAEECPQN; N-acetyl, C-amide, octylene bisthioether staple; Synthetic bisthioether stapled peptide; Compound 6; THIOETH (9)..(16) (CH2)8 linker between residues 9 and 16) [6 | SEQ ID NO: 8]”, for which the IC50 in series [2] is 17 ± 1.4 µM. Regarding “Ac-VINEEYKIWKKNTPFL-NH2 [compound 13, reference compound]”, in the series “circular dichroism”, the helicity came to 16.4%. Further, the “time to full degradation by chymotrypsin” value in series [3] was “half an hour”. In addition, in series [3] (bovine, read-out: t1/2 chymotrypsin stability assay (converted)), the half-life was 0.5 h.
